Data published in patent US20030087906A1, “NITROGEN SUBSTITUTED BIARYL PURINE DERIVATIVES AS POTENT ANTIPROLIFERATIVE AGENTS” (priority 2001, published 2003).

How the values were obtained:
Test in all cases: NCI 60-cell line growth inhibition assay
Assay type in all cases: cell-based
[1] = test system: KM12; settings: Homo sapiens; KM12 (Colon)
[2] = test system: TK-10; settings: Homo sapiens; TK-10 (Renal)
[3] = test system: OVCAR-8; settings: Homo sapiens; OVCAR-8 (Ovarian)
[4] = test system: CAKI-1; settings: Homo sapiens; CAKI-1 (Renal)
[5] = test system: IGROV1; settings: Homo sapiens, IGROV-1; IGROV1 (Ovarian)
[6] = test system: EKVX; settings: Homo sapiens; EKVX (Non-Small Cell Lung)
[7] = test system: A549/ATCC; settings: Homo sapiens; A549/ATCC (Non-Small Cell Lung)
[8] = test system: RXF 393; settings: Homo sapiens; RXF 393 (Renal)
[9] = test system: OVCAR-5; settings: Homo sapiens; OVCAR-5 (Ovarian)
[10] = test system: LOX IMVI; settings: Homo sapiens; LOX IMVI (Melanoma)
[11] = test system: MOLT-4; settings: Homo sapiens; MOLT-4 (Leukemia)
[12] = test system: HOP-92; settings: Homo sapiens; HOP-92 (Non-Small Cell Lung)
[13] = test system: NCI-H322M; settings: Homo sapiens; NCI-H322M (Non-Small Cell Lung)
[14] = test system: OVCAR-4; settings: Homo sapiens; OVCAR-4 (Ovarian)
[15] = test system: HOP-62; settings: Homo sapiens; HOP-62 (Non-Small Cell Lung)
[16] = test system: HT29; settings: Homo sapiens, HT-29; HT29 (Colon)
[17] = test system: SR; settings: Homo sapiens; SR (Leukemia)
[18] = test system: COLO 205; settings: Homo sapiens; COLO 205 (Colon)
[19] = test system: HCT-15; settings: Homo sapiens; HCT-15 (Colon)
[20] = test system: HL-60(TB); settings: Homo sapiens; HL-60(TB) (Leukemia)
[21] = test system: SW-620; settings: Homo sapiens; SW-620 (Colon)
[22] = test system: M14; settings: Homo sapiens; M14 (Melanoma)
[23] = test system: MDA-MB-231/ATCC; settings: Homo sapiens; MDA-MB-231/ATCC (Breast)
[24] = test system: SK-OV-3; settings: Homo sapiens; SK-OV-3 (Ovarian)
[25] = test system: UO-31; settings: Homo sapiens; UO-31 (Renal)
[26] = test system: U251; settings: Homo sapiens, U-251; U251 (CNS)
[27] = test system: MDA-MB-435; settings: Homo sapiens; MDA-MB-435 (Breast)
[28] = test system: MCF7; settings: Homo sapiens; MCF7 (Breast)
[29] = test system: K-562; settings: Homo sapiens, K562; K-562 (Leukemia)
[30] = test system: SF-295; settings: Homo sapiens; SF-295 (CNS)
[31] = test system: SK-MEL-5; settings: Homo sapiens; SK-MEL-5 (Melanoma)
[32] = test system: SK-MEL-28; settings: Homo sapiens; SK-MEL-28 (Melanoma)
[33] = test system: NCI-H460; settings: Homo sapiens; NCI-H460 (Non-Small Cell Lung)
[34] = test system: HS 578T; settings: Homo sapiens; HS 578T (Breast)
[35] = test system: SN12C; settings: Homo sapiens; SN12C (Renal)
[36] = test system: NCI-H522; settings: Homo sapiens; NCI-H522 (Non-Small Cell Lung)
[37] = test system: SNB-75; settings: Homo sapiens; SNB-75 (CNS)
[38] = test system: RPMI-8226; settings: Homo sapiens; RPMI-8226 (Leukemia)

SMILES	GI50 [1]	GI50 [2]	GI50 [4]	GI50 [5]	GI50 [7]	GI50 [8]	GI50 [9]	GI50 [10]	GI50 [11]	GI50 [12]	GI50 [14]	GI50 [15]	GI50 [16]	GI50 [17]	GI50 [18]	GI50 [19]	GI50 [20]	GI50 [21]	GI50 [22]	GI50 [23]	other results
CC[C@H](CO)Nc1nc(NCc2ccc(-c3ccc(OC)cc3)cc2)c2ncn(C(C)C)c2n1 [Compound 43]	2.3 µM	3.2 µM	3 µM	3.4 µM	4.1 µM	1.9 µM	3.6 µM	3.4 µM	2 µM	2.6 µM	8.9 µM	3.3 µM	3.6 µM	2.2 µM	1.6 µM	3.9 µM	2.1 µM	1.6 µM	2.2 µM	3.2 µM	GI50 [3]: 3.9 µM; GI50 [6]: 2.8 µM; GI50 [13]: 3.5 µM; GI50 [24]: 72.4 µM; GI50 [25]: 2.8 µM; GI50 [26]: 2.3 µM; GI50 [27]: 2.1 µM; GI50 [28]: 2.7 µM; GI50 [29]: 3.1 µM; GI50 [30]: 4 µM; GI50 [31]: 2.1 µM; GI50 [32]: 2.3 µM; GI50 [33]: 3.2 µM
CC(=O)N[C@H]1CC[C@H](Nc2nc(NCc3ccc(-c4ccccc4)nc3)c3ncn(C(C)C)c3n2)CC1 [Compound 87]	< 0.01 µM	0.029 µM	0.064 µM	0.052 µM	< 0.01 µM	0.011 µM	0.051 µM	0.027 µM	0.02 µM	0.088 µM	0.048 µM	0.01 µM	< 0.01 µM	0.032 µM	< 0.01 µM	0.066 µM	< 0.01 µM	< 0.01 µM	< 0.01 µM	< 0.01 µM	GI50 [34]: < 0.01 µM; GI50 [35]: < 0.01 µM; GI50 [24]: 0.35 µM; GI50 [25]: 0.016 µM; GI50 [36]: < 0.01 µM; GI50 [26]: 0.028 µM; GI50 [27]: < 0.01 µM; GI50 [28]: 0.04 µM; GI50 [37]: 0.012 µM; GI50 [29]: 0.024 µM; GI50 [30]: 0.047 µM; GI50 [31]: 0.028 µM; GI50 [32]: < 0.01 µM; GI50 [38]: < 0.01 µM; GI50 [33]: 0.22 µM
